Reference: the NIST ThermoML archive (doi:10.1016/j.jct.2012.11.027)

Assay: xn = mol fraction of the nth substance listed
Conditions: 101 kPa, Liquid, Linear variable-path acoustic interferometer

C=CC(=O)OC [methyl propenoate] + CCCCCCCCCCO
speed of sound [m/s]
Conditions	288.15 K	293.15 K	298.15 K	303.15 K	308.15 K	313.15 K	318.15 K
x1 = 0.0762	1388.2	1370.2	1352.1	1333.5	1318.1	1299.5	1284
x1 = 0.1523	1366.7	1348.2	1330.6	1312.1	1295.8	1276.3	1259.4
x1 = 0.2225	1346.9	1328.3	1310.1	1291.2	1275.1	1255.2	1238.1
x1 = 0.3073	1324.4	1304.9	1286.5	1268.1	1251.5	1231.5	1214.4
x1 = 0.3848	1304.7	1285.2	1267	1248.2	1231.2	1211.3	1194.3
x1 = 0.4622	1286.4	1267	1248.9	1230	1212.8	1193.1	1175.6
x1 = 0.5356	1270.8	1251.3	1233	1214.6	1197	1177.4	1160
x1 = 0.6092	1257.7	1238.3	1219.8	1201.2	1183	1163.6	1145.6
x1 = 0.6768	1247.2	1227.9	1209.4	1190.4	1171.8	1152.1	1133.7
x1 = 0.7443	1238.8	1219.3	1200.6	1181.3	1161.9	1141.8	1123.2
x1 = 0.8089	1233.4	1213.4	1193.9	1174.3	1154.1	1134	1114.4
x1 = 0.8736	1229.8	1209.1	1189.2	1169.1	1147.8	1127.2	1106.9
x1 = 0.9412	1227.4	1206.1	1185.6	1164.6	1142.5	1121.4	1100.4
x1 = 1	1226.6	1204.6	1183.6	1162.2	1139.1	1117.8	1095.7

C=CC(=O)OC [methyl propenoate] + CCCCCCCCO
speed of sound [m/s]
Conditions	288.15 K	293.15 K	298.15 K	303.15 K	308.15 K	313.15 K	318.15 K
x1 = 0.077	1371.5	1352.2	1331.5	1310.8	1292.2	1274.2	1256.8
x1 = 0.1554	1352.2	1331.8	1311.5	1290.9	1271.8	1253.4	1235.1
x1 = 0.2304	1333.7	1313.6	1293.4	1273.1	1253.6	1234.9	1216.4
x1 = 0.3053	1316.3	1296.3	1276	1255.8	1236	1217.5	1198.9
x1 = 0.383	1299.9	1280	1259.7	1239.6	1219.7	1200.9	1182.4
x1 = 0.4603	1285	1265.1	1244.7	1224.5	1204.5	1185.9	1167.5
x1 = 0.5321	1272.6	1252.5	1232.1	1212.1	1192.1	1173.4	1154.8
x1 = 0.6038	1262.4	1242	1221.6	1201.3	1181.1	1162.1	1143.1
x1 = 0.6724	1253.7	1233.3	1212.9	1192.3	1171.7	1152.5	1132.8
x1 = 0.741	1246.5	1225.8	1205.4	1184.7	1163.6	1143.8	1123.6
x1 = 0.8052	1241.4	1220.1	1199.4	1178.5	1156.7	1136.5	1115.7
x1 = 0.8698	1236.3	1214.7	1193.7	1172.5	1150.2	1129.6	1108.3
x1 = 0.935	1231.8	1209.6	1188.3	1166.8	1144.2	1123.1	1101.5
x1 = 1	1226.6	1204.6	1183.6	1162.2	1139.1	1117.8	1095.7

C=CC(=O)OC [methyl propenoate] + CCCCCCO
speed of sound [m/s]
Conditions	288.15 K	293.15 K	298.15 K	303.15 K	308.15 K	313.15 K	318.15 K
x1 = 0.077	1325.5	1306.4	1290.5	1272	1256.5	1236.3	1216.5
x1 = 0.1542	1311.1	1291.6	1275.3	1256.1	1240.1	1219.7	1199.7
x1 = 0.2299	1297.1	1277.5	1260.7	1241.8	1225.1	1204.8	1185.1
x1 = 0.3057	1284.1	1264.4	1247.4	1228.5	1211.6	1191.6	1171.8
x1 = 0.3834	1272	1252.3	1235.1	1216.4	1199.1	1179.4	1159.6
x1 = 0.4612	1261.7	1242	1224.5	1205.6	1187.9	1168.1	1148.2
x1 = 0.534	1253.5	1233.6	1215.9	1196.7	1178.5	1158.6	1138.4
x1 = 0.6068	1246.6	1226.4	1208.2	1188.7	1169.8	1149.7	1129.3
x1 = 0.672	1241.3	1220.8	1202.2	1182.4	1162.8	1142.4	1121.7
x1 = 0.737	1237.3	1216.6	1197.5	1177.4	1157	1136.3	1115.2
x1 = 0.8046	1233.9	1212.9	1193.4	1172.8	1151.6	1130.6	1109.1
x1 = 0.8722	1231.2	1209.8	1189.8	1168.7	1146.7	1125.4	1103.5
x1 = 0.9361	1229.1	1207.4	1186.7	1165.4	1142.6	1121.2	1099.4
x1 = 1	1226.6	1204.6	1183.6	1162.2	1139.1	1117.8	1095.7

C=CC(=O)OC [methyl propenoate] + CCCCO
speed of sound [m/s]
Conditions	288.15 K	293.15 K	298.15 K	303.15 K	308.15 K	313.15 K	318.15 K
x1 = 0.0777	1271.2	1250.8	1230.5	1212.8	1193.9	1174.9	1155
x1 = 0.1555	1261.3	1240.6	1220.1	1202.2	1182.9	1163.7	1143.8
x1 = 0.2273	1253.3	1232.6	1212.2	1194.2	1174.7	1155.5	1135.6
x1 = 0.299	1247	1226.3	1205.9	1187.7	1167.9	1148.7	1128.7
x1 = 0.3791	1241.3	1220.5	1200.2	1181.7	1161.6	1142.2	1122.1
x1 = 0.4593	1236.9	1216.1	1195.7	1176.8	1156.4	1136.8	1116.5
x1 = 0.5344	1233.9	1212.8	1192.4	1173.1	1152.4	1132.5	1111.9
x1 = 0.6095	1231.7	1210.5	1189.9	1170.3	1149.2	1128.9	1108
x1 = 0.6789	1230.3	1208.9	1188.2	1168.2	1146.7	1126.2	1104.9
x1 = 0.7483	1229.2	1207.7	1186.9	1166.6	1144.6	1123.8	1102.3
x1 = 0.8099	1228.5	1206.9	1186	1165.4	1143.1	1122.1	1100.4
x1 = 0.8715	1228	1206.2	1185.3	1164.4	1141.7	1120.6	1098.6
x1 = 0.9358	1227.4	1205.5	1184.5	1163.4	1140.4	1119	1096.9
x1 = 1	1226.6	1204.6	1183.6	1162.2	1139.1	1117.8	1095.7
